Reference: PubChem BioAssay AID248 (DTP/NCI, 2004)
“And” between values parts separate entries of the source, which are not always exact repeats. Identical values can stand only once. Toxic doses and inconclusive results are not listed. Rule as the data show it: active = T/C of 150% or more; inactive = T/C below 125%.

System: L1210 leukemia ip in BDF1 mice, survival T/C
Test: NCI In Vivo Anticancer Drug Screen. Data for tumor model L1210 Leukemia (intraperitoneal) in B6D2F1 (BDF1) mice
Details: endpoint: mean survival time, higher = longer survival
Method in brief: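 Tumor was transplanted into mice, which were then dosed with test compound or vehicle alone. Survival was recorded for each group, and the treated figure was expressed relative to the control figure.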

[1] = dose: 50.0 mg/kg/injection, schedule: Q04DX003 (ip), vehicle: Klucel (hydroxypropylcellulose) (HPC)
[2] = dose: 100.0 mg/kg/injection, schedule: Q04DX003 (ip), vehicle: Klucel (hydroxypropylcellulose) (HPC)
[3] = dose: 200.0 mg/kg/injection, schedule: Q04DX003 (ip), vehicle: Klucel (hydroxypropylcellulose) (HPC)
[4] = dose: 100.0 mg/kg/injection, schedule: Q01DX001 (ip), vehicle: Klucel (hydroxypropylcellulose) (HPC)
[5] = dose: 400.0 mg/kg/injection, schedule: Q04DX003 (ip), vehicle: Klucel (hydroxypropylcellulose) (HPC)
[6] = dose: 25.0 mg/kg/injection, schedule: Q01DX009 (ip), vehicle: Klucel (hydroxypropylcellulose) (HPC)
[7] = dose: 50.0 mg/kg/injection, schedule: Q01DX009 (ip), vehicle: Klucel (hydroxypropylcellulose) (HPC)
[8] = dose: 100.0 mg/kg/injection, schedule: Q01DX009 (ip), vehicle: Klucel (hydroxypropylcellulose) (HPC)

Measured: T/C

O=C(c1ccccc1)N(O)c1ccccc1
inactive: dose: 75.0 mg/kg/injection, schedule: Q01DX001 (ip), vehicle: saline 93 % of control | dose: 75.0 mg/kg/injection, schedule: Q01DX009 (ip), vehicle: saline 91 % of control | dose: 150.0 mg/kg/injection, schedule: Q01DX001 (ip), vehicle: saline 104 % of control | dose: 150.0 mg/kg/injection, schedule: Q01DX009 (ip), vehicle: saline 98 % of control | dose: 300.0 mg/kg/injection, schedule: Q01DX001 (ip), vehicle: saline 95 % of control | dose: 300.0 mg/kg/injection, schedule: Q01DX009 (ip), vehicle: saline 96 % of control

N#Cc1sc2ccccc2c1O
inactive: [1] 106 % of control | [2] 97 % of control | [3] 95 % of control

Nc1ccccc1SSc1ccccc1N
inactive: dose: 100.0 mg/kg/injection, schedule: Q04DX002 (ip), vehicle: Klucel (hydroxypropylcellulose) (HPC) 86 % of control | dose: 200.0 mg/kg/injection, schedule: Q04DX002 (ip), vehicle: Klucel (hydroxypropylcellulose) (HPC) 86 % of control

Nc1nc2nc(-c3ccccc3)nc(N)c2nc1-c1ccc(N(CCCl)CCCl)cc1
inactive: dose: 50.0 mg/kg/injection, schedule: Q01DX001 (ip), vehicle: carboxymethylcellulose (CMC) 98 % of control | dose: 100.0 mg/kg/injection, schedule: Q01DX001 (ip), vehicle: carboxymethylcellulose (CMC) 95 % of control | dose: 200.0 mg/kg/injection, schedule: Q01DX001 (ip), vehicle: carboxymethylcellulose (CMC) 101 % of control | dose: 400.0 mg/kg/injection, schedule: Q01DX001 (ip), vehicle: carboxymethylcellulose (CMC) 98 % of control

O=C(c1ccccc1)C1CN(C2CCCCC2)C1c1ccccc1 (configuration not stated)
inactive: [4] 109 % of control and 97 % of control | [2] 95 % of control | dose: 200.0 mg/kg/injection, schedule: Q01DX001 (ip), vehicle: Klucel (hydroxypropylcellulose) (HPC) 117 % of control and 99 % of control | [3] 93 % of control | dose: 400.0 mg/kg/injection, schedule: Q01DX001 (ip), vehicle: Klucel (hydroxypropylcellulose) (HPC) 97 % of control and 91 % of control | [5] 97 % of control

CCCCNC(=O)Nc1ccc(N(C)C)cc1
inactive: dose: 50.0 mg/kg/injection, schedule: Q01DX009 (ip), vehicle: saline with Tween-80 95 % of control | dose: 100.0 mg/kg/injection, schedule: Q01DX009 (ip), vehicle: saline with Tween-80 92 % of control | dose: 100.0 mg/kg/injection, schedule: Q04DX003 (ip), vehicle: saline with Tween-80 102 % of control | dose: 200.0 mg/kg/injection, schedule: Q01DX009 (ip), vehicle: saline with Tween-80 90 % of control | dose: 200.0 mg/kg/injection, schedule: Q04DX003 (ip), vehicle: saline with Tween-80 100 % of control | dose: 400.0 mg/kg/injection, schedule: Q04DX003 (ip), vehicle: saline with Tween-80 109 % of control

CC(=O)c1coc(=O)cc1O
inactive: [6] 102 % of control | dose: 25.0 mg/kg/injection, schedule: Q04DX003 (ip), vehicle: Klucel (hydroxypropylcellulose) (HPC) 97 % of control | [7] 98 % of control | [1] 97 % of control | [4] 103 % of control | [8] 98 % of control | [2] 100 % of control

O=C1CC(c2cccc(S(=O)(=O)F)c2)=NN1c1ccc([N+](=O)[O-])cn1
inactive: [2] 102 % of control | [3] 105 % of control | [5] 91 % of control

CN=C(NC)SC
inactive: dose: 100.0 mg/kg/injection, schedule: Q01DX001 (ip), vehicle: saline 103 % of control | [2] 100 % of control | dose: 200.0 mg/kg/injection, schedule: Q01DX001 (ip), vehicle: saline 97 % of control | [3] 93 % of control | dose: 400.0 mg/kg/injection, schedule: Q01DX001 (ip), vehicle: saline 96 % of control | [5] 100 % of control

O=C(O)C(Br)C(Br)C(=O)Nc1cccc(C(F)(F)F)c1 (configuration not stated)
inactive: [6] 96 % of control | [7] 96 % of control | [8] 103 % of control | dose: 100.0 mg/kg/injection, schedule: Q01DX009 (ip), vehicle: other 96 % of control
